Data published in US10131606B2, “Tetrarylmethane ethers” (Rohm and Haas Company, priority 2014, dated 2018).

With `CCCCCCCOc1ccc(C(c2ccccc2)(c2ccccc2)c2ccc(OCCCCCCC)cc2)cc1` [BHeptTPM, Bis(4-(heptyloxy)phenyl)diphenylmethane] the melting point was 103 to 105 °C. Compound `CCCCCCOc1ccc(C(c2ccccc2)(c2ccccc2)c2ccc(OCCCCCC)cc2)cc1` [BHexTPM] has a melting point of 120 to 122 °C. `CCCCCCCCOc1ccc(C(c2ccccc2)(c2ccccc2)c2ccc(OCCCCCCCC)cc2)cc1` [BOctTPM, Bis(4-(octyloxy)phenyl)diphenylmethane] showed a melting point of 84.5 to 86.5 °C. Work on `CCCCCOc1ccc(C(c2ccccc2)(c2ccccc2)c2ccc(OCCCCC)cc2)cc1` [BPentTPM, Bis(4-(pentyloxy)phenyl)diphenylmethane] yielded a melting point of 110 to 113 °C.
